Consider six compounds from ChEMBL document CHEMBL1134169, “Serotonergic and dopaminergic activities of rigidified (R)-aporphine derivatives” (Bioorg Med Chem Lett, 2001).

Structures are written as SMILES.

For assay [1], the target named is 5-hydroxytryptamine receptor 7 (Rattus norvegicus, UniProt P32305). Briefly: In vitro binding affinity towards cloned rat 5-hydroxytryptamine 7 receptor using [3H]5-HT as radioligand.
The target of assay [2] is T1, 5-hydroxytryptamine receptor 1A (Rattus norvegicus, UniProt P19327).
T1 sequence (P19327 whole entry): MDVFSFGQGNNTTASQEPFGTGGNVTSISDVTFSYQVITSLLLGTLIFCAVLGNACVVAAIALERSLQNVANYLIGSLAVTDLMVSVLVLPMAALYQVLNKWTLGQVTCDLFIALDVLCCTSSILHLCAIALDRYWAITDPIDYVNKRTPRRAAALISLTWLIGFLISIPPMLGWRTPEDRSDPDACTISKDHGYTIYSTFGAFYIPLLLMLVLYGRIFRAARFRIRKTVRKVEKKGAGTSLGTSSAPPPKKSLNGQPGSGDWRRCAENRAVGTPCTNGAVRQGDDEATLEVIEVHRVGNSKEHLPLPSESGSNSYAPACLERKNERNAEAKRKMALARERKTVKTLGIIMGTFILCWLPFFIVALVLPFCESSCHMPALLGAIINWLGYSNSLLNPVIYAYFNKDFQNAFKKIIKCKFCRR
Description: In vitro binding affinity towards 5-hydroxytryptamine 1A receptor using [3H]8-OH-DPAT as radioligand in rat hippocampus membrane. Type of assay: cell membranes.

The target of assay [3] is D(2) dopamine receptor (Homo sapiens, UniProt P14416). Description: In vitro binding affinity towards cloned human Dopamine receptor D2A using [3H]- Raclopride as radioligand.
D(2) dopamine receptor, sequence (P14416 whole entry): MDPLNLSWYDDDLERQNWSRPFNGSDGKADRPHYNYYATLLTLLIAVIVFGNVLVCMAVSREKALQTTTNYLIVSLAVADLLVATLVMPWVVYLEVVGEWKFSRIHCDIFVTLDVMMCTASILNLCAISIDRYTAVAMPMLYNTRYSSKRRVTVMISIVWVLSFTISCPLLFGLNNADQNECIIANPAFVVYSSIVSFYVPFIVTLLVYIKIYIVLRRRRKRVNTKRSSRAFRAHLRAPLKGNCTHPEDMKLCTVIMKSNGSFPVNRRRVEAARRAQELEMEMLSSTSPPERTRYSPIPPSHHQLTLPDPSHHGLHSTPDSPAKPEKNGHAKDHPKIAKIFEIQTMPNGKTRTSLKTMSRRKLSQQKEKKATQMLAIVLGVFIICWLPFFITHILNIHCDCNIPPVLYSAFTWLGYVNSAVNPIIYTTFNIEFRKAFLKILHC
In assay [4] the target is T2, 5-hydroxytryptamine receptor 1A (Homo sapiens, UniProt P08908).
T2 sequence (P08908 whole entry): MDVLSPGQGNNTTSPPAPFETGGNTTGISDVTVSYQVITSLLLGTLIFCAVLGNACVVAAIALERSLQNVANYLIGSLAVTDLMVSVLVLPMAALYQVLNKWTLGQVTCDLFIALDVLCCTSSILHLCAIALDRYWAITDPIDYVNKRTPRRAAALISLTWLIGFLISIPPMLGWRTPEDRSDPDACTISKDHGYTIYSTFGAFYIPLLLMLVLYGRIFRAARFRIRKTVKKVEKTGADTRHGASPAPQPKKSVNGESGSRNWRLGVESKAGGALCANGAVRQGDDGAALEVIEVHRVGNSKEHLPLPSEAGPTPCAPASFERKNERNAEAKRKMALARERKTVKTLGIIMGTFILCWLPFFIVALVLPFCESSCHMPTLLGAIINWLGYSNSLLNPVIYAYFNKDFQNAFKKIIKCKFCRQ
Briefly: In vitro binding affinity towards cloned human 5-hydroxytryptamine 1A receptor expressed in Chinese hamster ovary (CHO) cells using [3H]8-OH-DPAT as radioligand. The format is cell-based.

For orientation: Ki means the equilibrium dissociation constant of an inhibitor or competing ligand from its target. A higher Ki goes with a looser hold on the target.

5-hydroxytryptamine receptor 7, sequence (P32305 whole entry): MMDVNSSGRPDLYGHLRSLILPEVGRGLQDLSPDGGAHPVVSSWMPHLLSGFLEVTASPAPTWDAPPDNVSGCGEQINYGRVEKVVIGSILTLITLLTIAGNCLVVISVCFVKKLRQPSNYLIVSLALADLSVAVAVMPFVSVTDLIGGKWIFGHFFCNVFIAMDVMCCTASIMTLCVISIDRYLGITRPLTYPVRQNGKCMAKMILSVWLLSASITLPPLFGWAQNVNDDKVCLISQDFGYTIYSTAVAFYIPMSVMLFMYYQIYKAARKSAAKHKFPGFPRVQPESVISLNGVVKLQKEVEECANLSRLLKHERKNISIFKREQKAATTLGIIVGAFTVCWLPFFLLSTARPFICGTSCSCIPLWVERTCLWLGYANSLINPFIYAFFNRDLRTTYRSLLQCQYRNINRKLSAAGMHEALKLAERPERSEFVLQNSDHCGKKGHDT

`CN1CCc2ccc3c(=O)oc4cccc5c4c3c2[C@H]1C5`: the Ki is 0.283 µM in assay [1], 1.15 µM in assay [2] and 0.541 µM in assay [3].

For `CN1CCc2ccc3oc(=O)c4cccc5c4c3c2[C@H]1C5`, the Ki in assay [1] is 1.48 µM; in assay [2] it was 2.03 µM; in assay [3], 0.265 µM.

As to `CN1CCc2ccc3cnc4cccc5c4c3c2[C@H]1C5`, the Ki stood at 0.0623 µM in assay [4], 0.0272 µM in assay [1] and 1.33 µM in assay [3].

Turning to `CN1CCc2ccc3c(=O)[nH]c4cccc5c4c3c2[C@H]1C5`, the Ki in assay [4] was determined as 0.178 µM; in assay [1] it was 0.0545 µM; in assay [3], 0.0546 µM.

As for `CN1CCc2ccc3[nH]c(=O)c4cccc5c4c3c2[C@H]1C5`, the results for the Ki in assay [4], in assay [1] and in assay [3] were 0.373 µM, 0.341 µM and 6.11 µM, respectively.

Take `CN1CCc2ccc3ncc4cccc5c4c3c2[C@H]1C5`: the Ki in assay [4] turned out to be 0.0339 µM; in assay [1], 0.081 µM; in assay [3], 0.327 µM.
